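Assay format: 96-well plates, 48-hour exposure. At the GI50, growth is halved. TGI denotes the concentration required for complete inhibition of growth.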
How the values were obtained:
Test in all cases: NCI anticancer screen, dose series, 48 h; in the data active = GI50 below about 0.43 µM; inactive = the rest
[1] = tested on: EKVX NSCLC
[2] = tested on: OVCAR-4 ovarian
[3] = tested on: SK-MEL-5 melanoma
[4] = tested on: SK-MEL-2 melanoma
[5] = tested on: SN12C renal
[6] = tested on: MDA-MB-231 breast
[7] = tested on: NCI-H23 lung
[8] = tested on: RPMI-8226 leukemia
[9] = tested on: A498 renal
[10] = tested on: UACC-257 melanoma
[11] = tested on: PC-3 prostate
[12] = tested on: UO-31 renal
[13] = tested on: KM12 colon
[14] = tested on: SNB-19 CNS
[15] = tested on: HCT-116 colon
[16] = tested on: LOX IMVI melanoma
[17] = tested on: SK-OV-3 ovarian
[18] = tested on: SF-295 CNS
[19] = tested on: MCF7 breast
[20] = tested on: SNB-75 CNS
[21] = tested on: U251 CNS
[22] = tested on: BT-549 breast
[23] = tested on: IGROV1 ovarian
[24] = tested on: HOP-62 NSCLC
[25] = tested on: SK-MEL-28 melanoma
[26] = tested on: T-47D breast
[27] = tested on: HS 578T breast
[28] = tested on: HCC-2998 colon
[29] = tested on: UACC-62 melanoma
[30] = tested on: HL-60(TB) leukemia
[31] = tested on: SW-620 colon
[32] = tested on: NCI-H522 lung
[33] = tested on: CCRF-CEM leukemia
[34] = tested on: 786-0 renal
[35] = tested on: K-562 leukemia
[36] = tested on: COLO 205 colon
[37] = tested on: HCT-15 colon
[38] = tested on: OVCAR-3 ovarian
[39] = tested on: MDA-MB-435
[40] = tested on: OVCAR-5 ovarian
[41] = tested on: NCI-H226 lung
[42] = tested on: MOLT-4 leukemia
[43] = tested on: DU-145 prostate
[44] = tested on: SF-268 CNS
[45] = tested on: NCI-H460 lung
[46] = tested on: OVCAR-8 ovarian
[47] = tested on: TK-10 renal
[48] = tested on: CAKI-1 renal
[49] = tested on: A549 NSCLC
[50] = tested on: HOP-92 NSCLC
[51] = tested on: NCI/ADR-RES ovarian
[52] = tested on: M14 melanoma
[53] = tested on: MALME-3M melanoma
[54] = tested on: HT29 colon
[55] = tested on: RXF 393 renal
[56] = tested on: SF-539 CNS
[57] = tested on: ACHN renal

Nc1nc(N)c2cc(S(=O)(=O)c3ccccc3)ccc2n1
32.2 µM: TGI [28]
active: GI50 [35] 339 nM | GI50 [45] 417 nM
31.5 µM: TGI [30]
92.3 µM: TGI [22]
72.8 µM: TGI [50]
51.9 µM: TGI [18]
inactive: GI50 [1] 7.13 µM | GI50 [2] 7.2 µM | GI50 [3] 1140 nM | GI50 [4] 25.3 µM | GI50 [5] 3.21 µM | GI50 [6] 8.07 µM | GI50 [7] 3.03 µM | GI50 [8] 6.04 µM | GI50 [9] 8.33 µM | GI50 [10] 14.9 µM | GI50 [11] 838 nM | GI50 [12] 13.3 µM | GI50 [13] 4.23 µM | GI50 [14] 6.84 µM | GI50 [15] 501 nM | GI50 [16] 516 nM | GI50 [17] 5.41 µM | GI50 [18] 792 nM | GI50 [19] 2860 nM | GI50 [20] 8.86 µM | GI50 [21] 1240 nM | GI50 [22] 6.59 µM | GI50 [23] 4.59 µM | GI50 [24] 4.14 µM | GI50 [25] 10.6 µM | GI50 [26] 9.57 µM | GI50 [27] 6.93 µM | GI50 [28] 2380 nM | GI50 [29] 511 nM | GI50 [30] 1640 nM | GI50 [31] 512 nM | GI50 [32] 4.56 µM | GI50 [33] 2930 nM | GI50 [34] 1010 nM | GI50 [36] 6.99 µM | GI50 [37] 1750 nM | GI50 [38] 5.68 µM | GI50 [39] 487 nM | GI50 [40] 2210 nM | GI50 [41] 5.87 µM | GI50 [42] 4.31 µM | GI50 [43] 5.74 µM | GI50 [44] 3.13 µM | GI50 [46] 1310 nM | GI50 [47] 4.36 µM | GI50 [48] 3.45 µM | GI50 [49] 622 nM | GI50 [50] 4.64 µM | GI50 [51] 3.52 µM | GI50 [52] 506 nM | GI50 [53] 4.97 µM | GI50 [54] 634 nM | GI50 [55] 72.5 µM | GI50 [56] 2050 nM | GI50 [57] 3.27 µM
> 100 µM: TGI [1] | TGI [2] | TGI [3] | TGI [4] | TGI [5] | TGI [6] | TGI [7] | TGI [8] | TGI [9] | TGI [10] | TGI [11] | TGI [12] | TGI [13] | TGI [14] | TGI [15] | TGI [16] | TGI [17] | TGI [19] | TGI [20] | TGI [21] | TGI [23] | TGI [24] | TGI [25] | TGI [26] | TGI [27] | TGI [29] | TGI [31] | TGI [32] | TGI [33] | TGI [34] | TGI [35] | TGI [36] | TGI [37] | TGI [38] | TGI [39] | TGI [40] | TGI [41] | TGI [42] | TGI [43] | TGI [44] | TGI [45] | TGI [46] | TGI [47] | TGI [48] | TGI [49] | TGI [51] | TGI [52] | TGI [53] | TGI [54] | TGI [55] | TGI [56] | TGI [57]
